Test results as given in PubChem BioAssay AID1963422 (Molecular Pharmacology Branch, DTP, NCI, 2024).
Values belong to the compound of their own block, whether it stands above or below them.

Test system: 463943-066-T-J2-PDC complex spheroid growth
Experiment: Anticancer human tumor 463943-066-T-J2-PDC patient-derived colon adenocarcinoma cell line growth inhibition [Asc]
Details: for IC50: curve of first compound; for viability, T/C: stronger effect = lower value
Summary of the method: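 Spheroid model: tumor line + HUVEC + hMSC. Single agents and combinations; top conc. at/near clinical Cmax (10 microM if undetermined), half-log dilutions. DMSO stocks at 800-fold test concentration.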

[1] = second compound 0.0316 µM, first compound 0.00316 µM
[2] = second compound 0.0316 µM, first compound 0.01 µM
[3] = second compound 0.0316 µM, first compound 0.0316 µM
[4] = second compound 0.0316 µM, first compound 0.1 µM
[5] = second compound 0.0316 µM, first compound 0.316 µM
[6] = second compound 0.0316 µM, first compound 1 µM
[7] = second compound 0.1 µM, first compound 0.00316 µM
[8] = second compound 0.1 µM, first compound 0.01 µM
[9] = second compound 0.1 µM, first compound 0.0316 µM
[10] = second compound 0.1 µM, first compound 0.1 µM
[11] = second compound 0.1 µM, first compound 0.316 µM
[12] = second compound 0.1 µM, first compound 1 µM
[13] = second compound 0.316 µM, first compound 0.00316 µM
[14] = second compound 0.316 µM, first compound 0.01 µM
[15] = second compound 0.316 µM, first compound 0.0316 µM
[16] = second compound 0.316 µM, first compound 0.1 µM
[17] = second compound 0.316 µM, first compound 0.316 µM
[18] = second compound 0.316 µM, first compound 1 µM
[19] = second compound 1 µM, first compound 0.00316 µM
[20] = second compound 1 µM, first compound 0.01 µM
[21] = second compound 1 µM, first compound 0.0316 µM
[22] = second compound 1 µM, first compound 0.1 µM
[23] = second compound 1 µM, first compound 0.316 µM
[24] = second compound 1 µM, first compound 1 µM
[25] = second compound 3.16 µM, first compound 0.00316 µM
[26] = second compound 3.16 µM, first compound 0.01 µM
[27] = second compound 3.16 µM, first compound 0.0316 µM
[28] = second compound 3.16 µM, first compound 0.1 µM
[29] = second compound 3.16 µM, first compound 0.316 µM
[30] = second compound 3.16 µM, first compound 1 µM
[31] = second compound 10 µM, first compound 0.00316 µM
[32] = second compound 10 µM, first compound 0.01 µM
[33] = second compound 10 µM, first compound 0.0316 µM
[34] = second compound 10 µM, first compound 0.1 µM
[35] = second compound 10 µM, first compound 0.316 µM
[36] = second compound 10 µM, first compound 1 µM
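Note: compound exposure lasted 7 days.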
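Throughout, for viability, T/C: 100% = DMSO vehicle control wells.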

IC50 (second compound 0.0316 µM): > 1000 nM
IC50 (second compound 0.1 µM): > 1000 nM
IC50 (second compound 0.316 µM): > 1000 nM
IC50 (second compound 1 µM): > 1000 nM
IC50 (second compound 3.16 µM): > 1000 nM
IC50 (second compound 10 µM): 393 nM
Structure (SMILES): CCN1CCN(Cc2ccc(Nc3ncc(F)c(-c4cc(F)c5nc(C)n(C(C)C)c5c4)n3)nc2)CC1 + Cc1c(S(C)(=O)=O)c(-c2cc(F)cc(N3CCN(c4ccc(NS(=O)(=O)c5ccc(NC(CCN6CCC(C(=O)OCCCP(=O)(O)O)CC6)CSc6ccccc6)c(S(=O)(=O)C(F)(F)F)c5)cc4)CC3)c2)c(-c2ccc(Cl)cc2)n1C(C)C
viability, T/C [1]: 98.2%
viability, T/C [2]: 104%
viability, T/C [3]: 87.9%
viability, T/C [4]: 96.6%
viability, T/C [5]: 109%
viability, T/C [6]: 106%
viability, T/C [7]: 94%
viability, T/C [8]: 95.5%
viability, T/C [9]: 92.1%
viability, T/C [10]: 90.5%
viability, T/C [11]: 103%
viability, T/C [12]: 96.8%
viability, T/C [13]: 90.9%
viability, T/C [14]: 91.2%
viability, T/C [15]: 84.4%
viability, T/C [16]: 88.5%
viability, T/C [17]: 90.3%
viability, T/C [18]: 90%
viability, T/C [19]: 79.7%
viability, T/C [20]: 81.3%
viability, T/C [21]: 76%
viability, T/C [22]: 79%
viability, T/C [23]: 80.6%
viability, T/C [24]: 72.3%
viability, T/C [25]: 61.8%
viability, T/C [26]: 61.5%
viability, T/C [27]: 62.4%
viability, T/C [28]: 62.9%
viability, T/C [29]: 60%
viability, T/C [30]: 56%
viability, T/C [31]: 49.1%
viability, T/C [32]: 52.6%
viability, T/C [33]: 51.4%
viability, T/C [34]: 52.9%
viability, T/C [35]: 51.2%
viability, T/C [36]: 44.8%

IC50 (second compound 0.0316 µM): > 100 nM
IC50 (second compound 0.1 µM): > 100 nM
IC50 (second compound 0.316 µM): > 100 nM
IC50 (second compound 1 µM): > 100 nM
IC50 (second compound 3.16 µM): > 100 nM
IC50 (second compound 10 µM): < 0.316 nM
Structure (SMILES): Cn1ncnc1[C@H]1c2n[nH]c(=O)c3cc(F)cc(c23)N[C@@H]1c1ccc(F)cc1 + Cc1c(S(C)(=O)=O)c(-c2cc(F)cc(N3CCN(c4ccc(NS(=O)(=O)c5ccc(NC(CCN6CCC(C(=O)OCCCP(=O)(O)O)CC6)CSc6ccccc6)c(S(=O)(=O)C(F)(F)F)c5)cc4)CC3)c2)c(-c2ccc(Cl)cc2)n1C(C)C
viability, T/C (second compound 0.0316 µM, first compound 0.000316 µM): 100%
viability, T/C (second compound 0.0316 µM, first compound 0.001 µM): 91.8%
viability, T/C [1]: 93.6%
viability, T/C [2]: 102%
viability, T/C [3]: 92.2%
viability, T/C [4]: 83%
viability, T/C (second compound 0.1 µM, first compound 0.000316 µM): 93%
viability, T/C (second compound 0.1 µM, first compound 0.001 µM): 94%
viability, T/C [7]: 87.2%
viability, T/C [8]: 91.6%
viability, T/C [9]: 92.3%
viability, T/C [10]: 80.1%
viability, T/C (second compound 0.316 µM, first compound 0.000316 µM): 91.1%
viability, T/C (second compound 0.316 µM, first compound 0.001 µM): 82%
viability, T/C [13]: 84.5%
viability, T/C [14]: 80.2%
viability, T/C [15]: 86.7%
viability, T/C [16]: 83.1%
viability, T/C (second compound 1 µM, first compound 0.000316 µM): 84.9%
viability, T/C (second compound 1 µM, first compound 0.001 µM): 74.4%
viability, T/C [19]: 76.6%
viability, T/C [20]: 79.8%
viability, T/C [21]: 85.2%
viability, T/C [22]: 71.2%
viability, T/C (second compound 3.16 µM, first compound 0.000316 µM): 61.7%
viability, T/C (second compound 3.16 µM, first compound 0.001 µM): 58.1%
viability, T/C [25]: 61%
viability, T/C [26]: 61%
viability, T/C [27]: 68.3%
viability, T/C [28]: 60.8%
viability, T/C (second compound 10 µM, first compound 0.000316 µM): 44.8%
viability, T/C (second compound 10 µM, first compound 0.001 µM): 50.5%
viability, T/C [31]: 47.6%
viability, T/C [32]: 46.8%
viability, T/C [33]: 56.2%
viability, T/C [34]: 45.6%

IC50 (second compound 0.0316 µM): 95.2 nM
IC50 (second compound 0.1 µM): 111 nM
IC50 (second compound 0.316 µM): 55.9 nM
IC50 (second compound 1 µM): 26.8 nM
IC50 (second compound 3.16 µM): 9.46 nM
IC50 (second compound 10 µM): < 3.16 nM
Structure (SMILES): O=C(c1ccc(F)c(F)c1Nc1ccc(I)cc1F)N1CC(O)([C@@H]2CCCCN2)C1 + Cc1c(S(C)(=O)=O)c(-c2cc(F)cc(N3CCN(c4ccc(NS(=O)(=O)c5ccc(NC(CCN6CCC(C(=O)OCCCP(=O)(O)O)CC6)CSc6ccccc6)c(S(=O)(=O)C(F)(F)F)c5)cc4)CC3)c2)c(-c2ccc(Cl)cc2)n1C(C)C
viability, T/C [1]: 92%
viability, T/C [2]: 80.6%
viability, T/C [3]: 61.6%
viability, T/C [4]: 52.2%
viability, T/C [5]: 35.1%
viability, T/C [6]: 28.1%
viability, T/C [7]: 88.2%
viability, T/C [8]: 76.3%
viability, T/C [9]: 64.6%
viability, T/C [10]: 50.5%
viability, T/C [11]: 38.7%
viability, T/C [12]: 24.4%
viability, T/C [13]: 85.7%
viability, T/C [14]: 77.8%
viability, T/C [15]: 51.2%
viability, T/C [16]: 45.2%
viability, T/C [17]: 34.3%
viability, T/C [18]: 24.8%
viability, T/C [19]: 73.4%
viability, T/C [20]: 61.6%
viability, T/C [21]: 47.1%
viability, T/C [22]: 36.7%
viability, T/C [23]: 29.5%
viability, T/C [24]: 20%
viability, T/C [25]: 55.3%
viability, T/C [26]: 51.8%
viability, T/C [27]: 38.6%
viability, T/C [28]: 33.8%
viability, T/C [29]: 22.6%
viability, T/C [30]: 16.6%
viability, T/C [31]: 43.1%
viability, T/C [32]: 41.1%
viability, T/C [33]: 34%
viability, T/C [34]: 25.9%
viability, T/C [35]: 16.7%
viability, T/C [36]: 12.3%
